What was measured:
[1] = system: HCV genotype 1a subgenomic replicon; experiment: HCV replicon assay, genotype 1a subgenomic replicon (luciferase); assay type: cell-based; settings: Hepatitis C virus; genotype 1a replicon stable cell line, luciferase activity measured 48 hours later; read-out: Replicon 1A pEC50 (converted)
Method: (§1) Protocol for Testing and Data Analysis of Compounds in the HCV Replicon Assay
(§2) Compounds were assayed for activity against HCV using the genotype 1a and 1b subgenomic replicon model systems. Stable cell lines bearing the genotype 1a and 1b replicons were used for screening of compounds. Both replicons are bicistronic and contain the firefly luciferase gene. The ET cell line is stably transfected with RNA transcripts harboring a I389luc-ubi-neo/NS3-3′/ET replicon with firefly luciferase-ubiquitin-neomycin phosphotransferase fusion protein and EMCV-IRES driven NS3-5B polyprotein containing the cell culture adaptive mutations (E1202G; T1280I; K1846T) (Krieger at al, 2001 and unpublished). The genotype 1a replicon is a stable cell line licensed from Apath LLC, modified to contain the firefly luciferase gene. The cells were grown in DMEM, supplemented with 10% fetal calf serum, 2 mM Glutamine, Penicillin (100 IU/mL)/Streptomycin (100 μg/mL), 1× nonessential amino acids, and 250-500 μg/mL G418 (“Geneticin”). They were all available through Life Technologies (Bethesda, Md.). The cells were plated at 5×10^3 cells/well in 384 well plates containing compounds. The final concentration of compounds ranged between 0.03 pM to 50 μm and the final DMSO concentration of 0.5-1%.
(§3) Luciferase activity was measured 48 hours later by adding a Steady glo reagent (Promega, Madison, Wis.). Percent inhibition of replication data was plotted relative to no compound control. Under the same condition, cytotoxicity of the compounds was determined using cell titer glo (Promega, Madison, Ws). EC50s were determined from an 11 point dose response curve using 3-4-fold serial dilution for each compound, which spans a concentration range >1000 fold. The level of inhibition for each compound was determined with Activity Base or with BioAssay plus the Excel XC50 module. Percent inhibition was determined with the following equation where the cross-talk corrected value is the value from the test well, the compound positive control mean is the average value of the wells with no compound present, and the DMSO negative control mean is the average value of the wells with DMSO but no cells present.
(§4) [formula] These normalized values are exported to EC50 where they are plotted against the molar compound concentrations using the standard four parameter logistic equation: […]

[2] = system: HCV genotype 1b subgenomic replicon; experiment: HCV replicon assay, genotype 1b subgenomic replicon (ET cell line, luciferase); assay type: cell-based; settings: Hepatitis C virus; genotype 1b replicon ET cell line, luciferase activity measured 48 hours later; read-out: Replicon 1B pEC50 (converted)
Method: as §1, §2, §3, §4

SMILES	EC50 [1] [nM]	EC50 [2] [nM]
COC(=O)N[C@H](C(=O)N1CCC[C@H]1c1ncc(-c2ccc(-c3ccc(-c4cnc([C@@H]5CC6(CN5C(=O)[C@@H](NC(=O)OC)C(C)C)OCC(C)(C)CO6)[nH]4)cc3)cc2)[nH]1)C(C)C [Example 7, methyl [(1S)-1-({(2S)-2-[4-(4′-{2-[(3S)-8,8-dimethyl-2-((2S)-3-methyl-2-{[(methyloxy)carbonyl]amino}butanoyl)-6,10-dioxa-2-azaspiro[4.5]dec-3-yl]-1H-imidazol-4-yl}-4-biphenylyl)-1H-imidazol-2-yl]-1-pyrrolidinyl}carbonyl)-2-methylpropyl]carbamate]	0.794	0.00251
[2H]C1([2H])OC2(C[C@@H](c3ncc(-c4ccc(-c5ccc(-c6cnc([C@@H]7CCCN7C(=O)[C@@H](NC(=O)OC)C(C)C)[nH]6)cc5)cc4)[nH]3)N(C(=O)[C@@H](NC(=O)OC)C(C)C)C2)OC([2H])([2H])C1([2H])[2H] [Example 8, methyl [(1S)-2-methyl-1-({(2S)-2-[4-(4′-{2-[(3S)-2-((2S)-3-methyl-2-{[(methyloxy)carbonyl]amino}butanoyl)-6,10-dioxa-2-azaspiro[4.5]dec-3-yl]-1H-imidazol-4-yl}-4-biphenylyl)-1H-imidazol-2-yl]-1-pyrrolidinyl}carbonyl)propyl]carbamate-d6]	0.0316	0.00794
[2H]C1([2H])OC2(C[C@@H](c3ncc(-c4ccc(-c5ccc(-c6cnc([C@@H]7CCCN7C(=O)[C@@H](NC(=O)OC)C(C)C)[nH]6)cc5)cc4)[nH]3)N(C(=O)[C@@H](NC(=O)OC)C(C)C)C2)OC1([2H])[2H] [Example 9, methyl [(1S)-2-methyl-1-({(2S)-2-[4-(4′-{2-[(8S)-7-((2S)-3-methyl-2-{[(methyloxy)carbonyl]amino}butanoyl)-1,4-dioxa-7-azaspiro[4.4]non-8-yl]-1H-imidazol-4-yl}-4-biphenylyl)-1H-imidazol-2-yl]-1-pyrrolidinyl}carbonyl)propyl]carbamate-d4]	0.0316	0.00631
COC(=O)N[C@H](C(=O)N1CCC[C@H]1c1ncc(-c2ccc(-c3ccc(-c4cnc([C@@H]5CC6(CN5C(=O)[C@@H](NC(=O)OC)C(C)C)O[C@H](C)[C@@H](C)O6)[nH]4)cc3)cc2)[nH]1)C(C)C [Example 10, methyl [(1S)-1-({(2S)-2-[4-(4′-{2-[(2R,3R,8S)-2,3-dimethyl-7-((2S)-3-methyl-2-{[(methyloxy)carbonyl]amino}butanoyl)-1,4-dioxa-7-azaspiro[4.4]non-8-yl]-1H-imidazol-5-yl}-4-biphenylyl)-1H-imidazol-2-yl]-1-pyrrolidinyl}carbonyl)-2-methylpropyl]carbamate]	2	0.01
COC(=O)N[C@H](C(=O)N1CCC[C@H]1c1ncc(-c2ccc(-c3ccc(-c4cnc([C@@H]5CC6(CN5C(=O)[C@@H](NC(=O)OC)C(C)C)O[C@@H](C)[C@H](C)O6)[nH]4)cc3)cc2)[nH]1)C(C)C [Example 11, methyl [(1S)-1-({(2S)-2-[4-(4′-{2-[(2S,3S,8S)-2,3-dimethyl-7-((2S)-3-methyl-2-{[(methyloxy)carbonyl]amino}butanoyl)-1,4-dioxa-7-azaspiro[4.4]non-8-yl]-1H-imidazol-5-yl}-4-biphenylyl)-1H-imidazol-2-yl]-1-pyrrolidinyl}carbonyl)-2-methylpropyl]carbamate]	1.26	0.01
COC(=O)N[C@H](C(=O)N1CCC[C@H]1c1nc(-c2ccc(-c3ccc(-c4c[nH]c([C@@H]5CC6(CN5C(=O)[C@@H](NC(=O)OC)C(C)C)SCCS6)n4)cc3)cc2)c[nH]1)C(C)C [Example 12, methyl [(1S)-2-methyl-1-({(2S)-2-[4-(4′-{2-[(8S)-7-((2S)-3-methyl-2-{[(methyloxy)carbonyl]amino}butanoyl)-1,4-dithia-7-azaspiro[4.4]non-8-yl]-1H-imidazol-4-yl}-4-biphenylyl)-1H-imidazol-2-yl]-1-pyrrolidinyl}carbonyl)propyl]carbamate]	0.0794	0.00398

Source: patent US9814699B2, “Chemical compounds” (Janssen Pharmaceuticals, Inc., priority 2009, dated 2017)
